Assay results taken from patent US8470964B2, “Peptides derived from NCAM (FGLs)” (Enkam Pharmaceuticals A/S, priority 2007, dated 2013).

System: (25-35) β-amyloid peptide fragment induced cognitive deficits model in rats
Assay: (25-35) β-amyloid induced cognitive deficits, intranasal administration, SRT
Format: in vivo, rat
Settings: intranasal, 15 daily doses from day 7 to 21, test 24 hrs after the last administration
Excerpt: FIG. 9. Effects of intranasal administration of FGLs on the β-amyloid neurotoxicity induced deficit on performance in the Social Recognition Test. Rats received an intranasal administration of FGLs at the stated doses or vehicle daily at days 7 to 21 after i.c.v. administration of the (25-35) β-amyloid (A-β) fragment. 8-10 animals per group. Results are expressed as Means and SEM of Recognition Ratio and analyzed by one-sample t-test: **p<0.05.
In this study, the (25-35) β-amyloid peptide fragment induced cognitive deficits model in rats was used to investigate the dose-response (0.08, 0.32 or 1.28 mg/kg) effect of FGLs administered intranasally daily for 15 doses from day 7 to day 21 post β-amyloid peptide i.c.v. injection. The social memory performance was evaluated using the SRT, 22 days after the β-amyloid injection. A statistically significant impairment of short-term memory was observed as a consequence of the (25-35) β-amyloid neurotoxicity in the rats receiving the (25-35) β-amyloid fragment plus vehicle.

EVYVVAENQQGKSKA [FGL, reference compound]
minimum effective dose, impaired short-term memory (SRT): 1.28 mg/kg
